Test results taken from publication PMC8645336, “Benchmarking a highly selective USP30 inhibitor for enhancement of mitophagy and pexophagy” (Life Science Alliance, 2021).

Key:
Assay in all cases: biochemical
Set-up in all cases: Ubiquigent DUB profiler selectivity panel, remaining enzyme activity as % of control
Conditions in all cases: read-out: % of control remaining
OTUD6A = target: T1, OTUD6A (Homo sapiens, UniProt Q7L8S5)
T1 sequence (Q7L8S5 1-288): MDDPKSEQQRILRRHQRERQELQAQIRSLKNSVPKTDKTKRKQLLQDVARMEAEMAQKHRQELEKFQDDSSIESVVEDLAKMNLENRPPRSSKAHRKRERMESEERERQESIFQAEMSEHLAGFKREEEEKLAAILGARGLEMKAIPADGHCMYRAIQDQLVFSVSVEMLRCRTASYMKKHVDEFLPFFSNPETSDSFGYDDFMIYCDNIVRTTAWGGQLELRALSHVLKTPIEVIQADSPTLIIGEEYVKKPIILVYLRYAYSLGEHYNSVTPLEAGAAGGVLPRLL
Outline: (§1)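 In YFP-PRKN-overexpressing hTERT-RPE1 cells, 1 h antimycin A plus oligomycin A (1 μM each) with CMPD-39, then Western blot of TOMM20 ubiquitylation. Target engagement: 2 h compound, then 10 min HA-Ub-PA at 37°C, read as USP30 shift. DUB panel (>40 enzymes) screened at 1-100 μM.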

UCHL5 = target: T2, UCHL5 (Homo sapiens, UniProt Q9Y5K5)
T2 sequence (Q9Y5K5 1-329): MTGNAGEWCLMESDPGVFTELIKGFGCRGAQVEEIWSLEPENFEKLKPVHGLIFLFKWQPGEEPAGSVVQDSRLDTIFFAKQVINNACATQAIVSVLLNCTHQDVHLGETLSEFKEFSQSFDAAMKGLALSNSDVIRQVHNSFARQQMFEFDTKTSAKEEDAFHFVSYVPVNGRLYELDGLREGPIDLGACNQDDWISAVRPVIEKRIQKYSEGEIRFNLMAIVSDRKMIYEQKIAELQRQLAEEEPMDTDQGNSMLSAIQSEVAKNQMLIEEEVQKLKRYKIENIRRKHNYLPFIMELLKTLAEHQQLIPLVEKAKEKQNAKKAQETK
Outline: as §1

USP35** = target: T3, USP35** (Homo sapiens, UniProt Q9P2H5)
T3 sequence (Q9P2H5 1-1018): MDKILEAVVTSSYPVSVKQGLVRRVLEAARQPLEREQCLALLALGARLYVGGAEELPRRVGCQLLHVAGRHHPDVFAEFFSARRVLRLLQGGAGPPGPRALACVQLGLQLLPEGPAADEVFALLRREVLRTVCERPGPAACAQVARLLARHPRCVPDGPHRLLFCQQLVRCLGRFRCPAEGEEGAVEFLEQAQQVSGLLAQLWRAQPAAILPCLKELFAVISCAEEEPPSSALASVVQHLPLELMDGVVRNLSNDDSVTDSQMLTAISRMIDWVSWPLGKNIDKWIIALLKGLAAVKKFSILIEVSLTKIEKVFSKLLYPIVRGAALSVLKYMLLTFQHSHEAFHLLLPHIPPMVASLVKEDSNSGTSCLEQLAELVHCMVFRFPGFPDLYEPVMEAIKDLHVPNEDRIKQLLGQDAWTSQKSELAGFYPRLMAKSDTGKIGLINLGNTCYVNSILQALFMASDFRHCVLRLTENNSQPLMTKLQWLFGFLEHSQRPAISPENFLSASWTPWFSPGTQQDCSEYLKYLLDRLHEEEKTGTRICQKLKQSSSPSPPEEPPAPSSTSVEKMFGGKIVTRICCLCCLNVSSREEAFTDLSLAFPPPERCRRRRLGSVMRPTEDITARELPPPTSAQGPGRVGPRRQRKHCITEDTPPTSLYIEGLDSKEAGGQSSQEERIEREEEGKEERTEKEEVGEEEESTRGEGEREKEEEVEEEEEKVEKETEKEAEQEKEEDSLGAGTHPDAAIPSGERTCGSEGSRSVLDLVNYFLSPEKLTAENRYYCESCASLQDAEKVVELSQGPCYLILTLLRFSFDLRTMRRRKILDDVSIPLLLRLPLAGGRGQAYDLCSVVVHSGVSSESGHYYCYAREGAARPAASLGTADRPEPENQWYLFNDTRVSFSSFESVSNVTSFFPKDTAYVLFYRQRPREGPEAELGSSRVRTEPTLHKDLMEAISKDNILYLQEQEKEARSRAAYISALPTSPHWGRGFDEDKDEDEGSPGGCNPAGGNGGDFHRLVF
Outline: as §1

USP1/UAF1 = USP1/UAF1 (Homo sapiens, UniProt O94782)
Outline: as §1

Sequence of USP1/UAF1 (O94782 whole entry): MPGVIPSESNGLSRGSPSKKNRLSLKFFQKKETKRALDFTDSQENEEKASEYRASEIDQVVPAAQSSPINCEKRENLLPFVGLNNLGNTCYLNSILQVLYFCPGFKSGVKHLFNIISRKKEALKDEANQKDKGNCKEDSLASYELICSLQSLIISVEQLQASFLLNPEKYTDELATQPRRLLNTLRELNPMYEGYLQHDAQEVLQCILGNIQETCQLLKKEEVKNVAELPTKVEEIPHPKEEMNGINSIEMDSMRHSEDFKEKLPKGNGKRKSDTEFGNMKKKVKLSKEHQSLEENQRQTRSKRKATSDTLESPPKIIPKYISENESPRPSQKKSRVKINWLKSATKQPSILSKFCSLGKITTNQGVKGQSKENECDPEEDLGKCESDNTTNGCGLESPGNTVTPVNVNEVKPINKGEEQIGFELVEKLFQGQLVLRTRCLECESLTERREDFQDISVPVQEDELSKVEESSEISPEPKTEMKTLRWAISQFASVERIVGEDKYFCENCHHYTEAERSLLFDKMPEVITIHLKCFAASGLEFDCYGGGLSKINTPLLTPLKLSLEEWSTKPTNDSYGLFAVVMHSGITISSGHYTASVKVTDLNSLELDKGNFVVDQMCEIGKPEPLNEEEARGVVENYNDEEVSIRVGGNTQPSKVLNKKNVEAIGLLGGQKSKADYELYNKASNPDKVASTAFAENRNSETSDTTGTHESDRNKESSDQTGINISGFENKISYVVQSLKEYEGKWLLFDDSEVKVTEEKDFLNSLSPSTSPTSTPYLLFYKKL
Sequence of USP1/UAF1 (Q8TAF3 whole entry partner): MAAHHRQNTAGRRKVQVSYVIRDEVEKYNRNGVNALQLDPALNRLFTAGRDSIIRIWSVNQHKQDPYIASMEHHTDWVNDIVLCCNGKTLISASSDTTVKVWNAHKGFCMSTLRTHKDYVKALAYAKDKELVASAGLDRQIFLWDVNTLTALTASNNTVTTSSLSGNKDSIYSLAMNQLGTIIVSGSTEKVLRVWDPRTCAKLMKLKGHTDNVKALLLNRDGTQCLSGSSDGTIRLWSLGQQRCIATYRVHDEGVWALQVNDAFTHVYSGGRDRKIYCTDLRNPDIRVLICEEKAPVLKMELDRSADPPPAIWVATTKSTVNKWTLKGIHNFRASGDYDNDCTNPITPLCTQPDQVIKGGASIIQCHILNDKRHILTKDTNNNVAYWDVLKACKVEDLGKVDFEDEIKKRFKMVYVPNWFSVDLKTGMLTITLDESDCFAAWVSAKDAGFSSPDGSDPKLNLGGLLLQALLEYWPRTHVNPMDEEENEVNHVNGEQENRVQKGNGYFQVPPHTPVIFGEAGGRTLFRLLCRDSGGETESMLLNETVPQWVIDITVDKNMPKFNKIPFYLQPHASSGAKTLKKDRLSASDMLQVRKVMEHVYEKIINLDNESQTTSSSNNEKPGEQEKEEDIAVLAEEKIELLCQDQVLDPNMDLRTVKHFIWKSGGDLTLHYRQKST

Structure (SMILES): CC(C)(C)NS(=O)(=O)c1ccc(NC(=O)[C@H](Cc2ccccc2)NC(=O)c2ccc(F)cc2)cc1 [compound 39, CMPD-39]
- remaining activity at 1 µM (OTUD6A): 103%
- remaining activity at 10 µM (OTUD6A): 99.3%
- remaining activity at 100 µM (OTUD6A): 101%
- remaining activity at 1 µM (UCHL5): 107%
- remaining activity at 10 µM (UCHL5): 98%
- remaining activity at 100 µM (UCHL5): 101%
- remaining activity at 1 µM (USP35**): 113%
- remaining activity at 10 µM (USP35**): 101%
- remaining activity at 100 µM (USP35**): 102%
- remaining activity at 1 µM (USP1/UAF1): 98.6%
- remaining activity at 10 µM (USP1/UAF1): 95.6%
- remaining activity at 100 µM (USP1/UAF1): 97.4%
